Measured values from US20220040136A1, “TREATMENT OF VULVOVAGINAL DISORDERS” (University of Rochester, priority 2018, published 2022).

Tested on: C57BL/6J mice
Assay: Mouse model of LPV, DHA cream (Example 4)
Assay type: in vivo
Description: A total of 36 C57BL/6J mice were subjected to 6 weeks of allodynia induction using the protocol described above. Briefly, zymosan was used to induce sustained vulvar allodynia, measured by pain threshold testing. An electronic vonFrey system (MOUSEMET™, Topcat Metrology) was used to apply gradually increasing force to the vulva at the injection site, located at the midline posterior vulvar (between the vaginal opening and anus) (FIG. 7A). The hair was applied perpendicular to the vulvar surface with a gradually increasing force within a range of 0.100 g to 7.0 g (FIG. 7B). A positive response was defined as either (1) a reflexive, coordinated four extremity extension, (2) jump, or (3) immediate grooming of the vulva in response to vulvar stimulus, at which point the peak force was recorded.
During allodynia induction, mice receive weekly injections of zymosan (10 mg/ml in 10 μl saline) for a maximum of 6 injections, until a >33% reduction in pain threshold is observed for 2 consecutive weeks of testing (FIG. 7C). Pain threshold testing was performed at the same time every week, immediately prior to zymosan injection; after the first 2 weeks of injections, a determination of threshold change was performed after pain testing to determine which mice would receive additional zymosan injections. […]

CC/C=C\C/C=C\C/C=C\C/C=C\C/C=C\C/C=C\CCC(=O)O [DHA, docosahexaenoic acid]
mice recovered from allodynia (DHA cream group (12 mice), after 6 weeks of treatment, recovery = 70% improvement over lowest pain threshold for 2 consecutive tests): 9 mice | first week at which mice began to recover (DHA group, week = first week of a two-week period with 70% improvement, FIG. 13): 1 week
